In patent US6337351B1, “Pharmaceutical compositions and methods for use” (Targacept, Inc., priority 1998, dated 2002):

How the values were obtained:
dopamine release = test: Dopamine release; format: cell-based; conditions: for Emax: amount released relative to (S)-(-)-nicotine
Procedure: Determination of Dopamine Release
Dopamine release was measured using the techniques described in U.S. Pat. No. 5,597,919 to Dull et al. Release is expressed as a percentage of release obtained with a concentration of (S)-(−)-nicotine resulting in maximal effects. Reported EC50 values are expressed in nM, and Emax values represent the amount released relative to (S)-(−)-nicotine on a percentage basis.

[1] = biological target: T1, muscle-type nicotinic acetylcholine receptors (Homo sapiens, UniProt P02708+P07510+Q07001); test: Interaction with muscle receptors; format: cell-based; conditions: at a concentration of 100 uM; relative to maximal activation by (S)-(-)-nicotine
T1 construct: cell preparations expressing muscle-type nicotinic acetylcholine receptors; endogenous in cells
From the text: The compounds of the present invention, when employed in effective amounts in accordance with the method of the present invention, lack the ability to elicit activation of nicotinic receptors of human muscle to any significant degree. […] Generally, typical preferred compounds useful in carrying the present invention activate isotopic rubidium ion flux by less than 15 percent, often by less than 5 percent, of that maximally provided by S(−) nicotine.
Determination of Interaction with Muscle Receptors
(§1) The determination of the interaction of the compounds with muscle receptors was carried out in accordance with the techniques described in U.S. Pat. No. 5,597,919 to Dull et al. The maximal activation for individual compounds (Emax) was determined as a percentage of the maximal activation induced by (S)-(−)-nicotine. Reported Emax values represent the amount released relative to (S)-(−)-nicotine on a percentage basis.

[2] = system: ganglionic-type nicotinic acetylcholine receptors; test: Interaction with ganglion receptors; format: cell-based; conditions: at a concentration of 100 uM; relative to maximal activation by (S)-(-)-nicotine
From the text: By this is meant that a particular dose of compound resulting in prevention and/or treatment of a CNS disorder, is essentially ineffective in eliciting activation of certain ganglionic-type nicotinic receptors. […] As such, such compounds have poor ability to cause isotopic rubidium ion flux through nicotinic receptors in cell preparations derived from the adrenal gland. Generally, typical preferred compounds useful in carrying out the present invention activate isotopic rubidium ion flux by less than 15 percent, often by less than 5 percent, of that maximally provided by S(−) nicotine.
Determination of Interaction with Ganglion Receptors
as §1, with “ganglionic” for “muscle”

CNS nicotinic receptors = CNS nicotinic receptors (Rattus norvegicus, UniProt P09483+P12390); test: Binding to relevant receptor sites; conditions: inhibition constants calculated from IC50 values by the method of Cheng et al.
Procedure: Determination of Binding to Relevant Receptor Sites
Binding of the compounds to relevant receptor sites was determined in accordance with the techniques described in U.S. Pat. No. 5,597,919 to Dull et al. Inhibition constants (Ki values), reported in nM, were calculated from the IC50 values using the method of Cheng et al., Biochem, Pharmacol. 22:3099 (1973).

T1 sequence (P02708 21-457): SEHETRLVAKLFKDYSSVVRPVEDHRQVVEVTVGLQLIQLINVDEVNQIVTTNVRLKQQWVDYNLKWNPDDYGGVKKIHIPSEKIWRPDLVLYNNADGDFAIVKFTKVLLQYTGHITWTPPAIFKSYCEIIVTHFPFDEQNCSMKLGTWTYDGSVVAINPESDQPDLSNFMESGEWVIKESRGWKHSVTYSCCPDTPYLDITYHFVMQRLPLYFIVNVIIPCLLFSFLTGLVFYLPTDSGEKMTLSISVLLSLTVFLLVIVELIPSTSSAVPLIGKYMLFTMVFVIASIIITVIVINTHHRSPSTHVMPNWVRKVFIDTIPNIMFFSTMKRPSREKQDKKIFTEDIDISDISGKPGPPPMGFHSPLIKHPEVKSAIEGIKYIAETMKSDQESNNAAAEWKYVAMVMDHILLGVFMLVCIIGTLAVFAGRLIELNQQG
T1 sequence (P11230 24-501 partner): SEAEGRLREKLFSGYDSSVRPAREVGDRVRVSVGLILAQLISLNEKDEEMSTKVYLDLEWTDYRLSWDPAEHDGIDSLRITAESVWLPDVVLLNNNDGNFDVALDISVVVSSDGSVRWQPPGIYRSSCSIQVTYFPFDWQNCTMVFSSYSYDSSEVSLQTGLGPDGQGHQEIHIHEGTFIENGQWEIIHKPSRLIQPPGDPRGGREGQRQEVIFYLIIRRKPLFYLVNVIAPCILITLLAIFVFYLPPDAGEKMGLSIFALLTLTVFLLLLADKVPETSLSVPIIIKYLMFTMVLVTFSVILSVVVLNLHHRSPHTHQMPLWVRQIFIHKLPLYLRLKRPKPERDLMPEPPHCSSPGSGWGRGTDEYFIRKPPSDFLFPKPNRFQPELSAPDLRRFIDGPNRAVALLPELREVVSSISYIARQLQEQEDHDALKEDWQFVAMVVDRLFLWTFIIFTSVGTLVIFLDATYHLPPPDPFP
T1 sequence (Q07001 22-517): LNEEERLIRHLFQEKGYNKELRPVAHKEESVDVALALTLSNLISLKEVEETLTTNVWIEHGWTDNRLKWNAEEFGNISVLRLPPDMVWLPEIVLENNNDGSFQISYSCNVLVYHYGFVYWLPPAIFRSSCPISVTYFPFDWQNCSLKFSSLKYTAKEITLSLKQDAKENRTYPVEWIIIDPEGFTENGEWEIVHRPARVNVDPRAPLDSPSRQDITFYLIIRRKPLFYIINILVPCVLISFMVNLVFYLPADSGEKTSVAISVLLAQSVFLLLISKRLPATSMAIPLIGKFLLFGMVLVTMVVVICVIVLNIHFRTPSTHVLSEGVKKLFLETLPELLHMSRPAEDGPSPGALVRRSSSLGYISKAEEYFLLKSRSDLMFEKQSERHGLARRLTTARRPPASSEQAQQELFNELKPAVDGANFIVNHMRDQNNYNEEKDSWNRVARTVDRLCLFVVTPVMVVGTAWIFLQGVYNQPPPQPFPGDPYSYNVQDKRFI
T1 sequence (P07510 23-517): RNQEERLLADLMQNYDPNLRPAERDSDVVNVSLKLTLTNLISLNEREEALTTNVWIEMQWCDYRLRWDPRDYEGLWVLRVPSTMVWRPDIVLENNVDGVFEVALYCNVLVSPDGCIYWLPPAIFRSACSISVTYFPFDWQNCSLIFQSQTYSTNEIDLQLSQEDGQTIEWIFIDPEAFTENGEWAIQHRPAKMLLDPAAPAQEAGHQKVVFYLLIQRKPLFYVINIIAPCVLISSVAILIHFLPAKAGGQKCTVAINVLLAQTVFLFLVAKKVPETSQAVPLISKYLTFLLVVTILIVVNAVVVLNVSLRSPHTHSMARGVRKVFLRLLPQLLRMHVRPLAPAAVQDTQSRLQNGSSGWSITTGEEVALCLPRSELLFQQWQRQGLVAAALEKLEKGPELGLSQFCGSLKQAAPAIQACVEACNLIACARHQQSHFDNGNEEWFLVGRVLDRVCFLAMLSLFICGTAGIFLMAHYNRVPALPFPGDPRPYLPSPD
CNS nicotinic receptors, sequence (P09483 31-630): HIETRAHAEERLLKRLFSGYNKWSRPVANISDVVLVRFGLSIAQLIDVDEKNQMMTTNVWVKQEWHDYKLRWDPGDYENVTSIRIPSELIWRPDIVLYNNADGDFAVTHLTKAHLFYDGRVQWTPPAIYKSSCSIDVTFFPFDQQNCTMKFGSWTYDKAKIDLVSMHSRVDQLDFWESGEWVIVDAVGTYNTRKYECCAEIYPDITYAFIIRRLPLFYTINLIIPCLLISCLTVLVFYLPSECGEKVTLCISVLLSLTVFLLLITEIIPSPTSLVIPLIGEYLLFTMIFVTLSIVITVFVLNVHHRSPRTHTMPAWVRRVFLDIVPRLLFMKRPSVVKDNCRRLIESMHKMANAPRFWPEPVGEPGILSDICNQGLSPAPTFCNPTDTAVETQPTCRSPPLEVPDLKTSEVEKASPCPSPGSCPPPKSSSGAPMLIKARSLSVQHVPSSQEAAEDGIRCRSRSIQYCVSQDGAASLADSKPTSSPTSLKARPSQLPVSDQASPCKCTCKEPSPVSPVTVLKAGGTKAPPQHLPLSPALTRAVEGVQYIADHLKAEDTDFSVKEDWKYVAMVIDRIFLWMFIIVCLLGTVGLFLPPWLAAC
CNS nicotinic receptors, sequence (P12390 25-500): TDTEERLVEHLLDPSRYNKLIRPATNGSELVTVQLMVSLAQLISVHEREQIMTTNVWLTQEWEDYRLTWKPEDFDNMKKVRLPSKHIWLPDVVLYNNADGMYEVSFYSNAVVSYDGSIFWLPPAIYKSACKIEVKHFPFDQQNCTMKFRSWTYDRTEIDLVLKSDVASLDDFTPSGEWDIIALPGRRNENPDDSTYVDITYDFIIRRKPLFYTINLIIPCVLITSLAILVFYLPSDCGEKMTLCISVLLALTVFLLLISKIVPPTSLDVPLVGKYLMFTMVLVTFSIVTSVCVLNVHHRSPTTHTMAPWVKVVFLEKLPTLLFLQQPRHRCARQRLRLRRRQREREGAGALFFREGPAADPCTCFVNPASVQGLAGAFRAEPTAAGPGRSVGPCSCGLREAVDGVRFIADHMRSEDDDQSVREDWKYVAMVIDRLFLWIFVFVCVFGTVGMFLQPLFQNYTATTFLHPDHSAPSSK

Compound	EC50 (dopamine release)	Emax (dopamine release)	Emax at 100 µM [1]	Emax at ganglionic-type receptors [2]	Ki (CNS nicotinic receptors)
NCC/C=C/c1cccc(N)c1 [Sample No. 1, (E)-4-(3-aminophenyl)-3-buten-1-amine]	12.6 µM	74%	0%	4%	–
CNCC/C=C/c1cccc(N)c1 [Sample No. 2, (E)-N-methyl-4-(3-aminophenyl)-3-buten-1-amine]	0.913 µM	78%	7%	3%	–
CNC(C)C/C=C/c1cccc(N)c1 (centres unmarked) [Sample No. 3, (E)-N-methyl-5-(3-aminophenyl)-4-penten-2-amine]	0.92 µM	78%	2%	6%	–
(4E)-N-methyl-5-(3,4-methylenedioxyphenyl)-4-penten-2-amine hemigalactarate [Sample No. 4]	–	–	–	–	11.6 µM
(4E)-N-methyl-5-(3-acetamido-4-methylphenyl)-4-penten-2-amine hemigalactarate [Sample No. 10]	–	–	–	–	10 µM
(4E)-N-methyl-5-(3-amino-4-methylphenyl)-4-penten-2-amine hemigalactarate [Sample No. 9]	–	–	–	–	3.3 µM
(4E)-N-methyl-5-(3-fluorophenyl)-4-penten-2-amine hemigalactarate [Sample No. 6]	–	–	–	–	5.69 µM
(4E)-N-methyl-5-(4-methyl-3-nitrophenyl)-4-penten-2-amine hemigalactarate [Sample No. 7]	–	–	–	–	6.44 µM
